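Test compounds were applied to cells in 96-well plates for 48 hours at 5 doses. GI50: concentration for 50% inhibition of growth. At the TGI there is no net growth.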
Legend:
Test in all cases: NCI tumour cell line growth inhibition, 48 h
[1] = tested on: SNB-75 CNS
[2] = tested on: HOP-62 NSCLC
[3] = tested on: RPMI-8226 leukemia
[4] = tested on: T-47D breast
[5] = tested on: A549 NSCLC
[6] = tested on: LOX IMVI melanoma
[7] = tested on: HOP-92 NSCLC
[8] = tested on: MALME-3M melanoma
[9] = tested on: UO-31 renal
[10] = tested on: NCI-H226 lung
[11] = tested on: K-562 leukemia
[12] = tested on: HT29 colon
[13] = tested on: MOLT-4 leukemia
[14] = tested on: RXF 393 renal
[15] = tested on: SW-620 colon
[16] = tested on: EKVX NSCLC
[17] = tested on: SF-268 CNS
[18] = tested on: ACHN renal
[19] = tested on: NCI/ADR-RES ovarian
[20] = tested on: SN12C renal
[21] = tested on: MCF7 breast
[22] = tested on: HCT-15 colon
[23] = tested on: OVCAR-3 ovarian
[24] = tested on: TK-10 renal
[25] = tested on: SK-MEL-28 melanoma
[26] = tested on: HCC-2998 colon
[27] = tested on: DU-145 prostate
[28] = tested on: SNB-19 CNS
[29] = tested on: OVCAR-4 ovarian
[30] = tested on: SF-539 CNS
[31] = tested on: HS 578T breast
[32] = tested on: MDA-MB-435
[33] = tested on: HCT-116 colon
[34] = tested on: MDA-MB-231 breast
[35] = tested on: NCI-H522 lung
[36] = tested on: U251 CNS
[37] = tested on: NCI-H23 lung
[38] = tested on: 786-0 renal
[39] = tested on: OVCAR-5 ovarian
[40] = tested on: PC-3 prostate
[41] = tested on: A498 renal
[42] = tested on: UACC-62 melanoma
[43] = tested on: M14 melanoma
[44] = tested on: KM12 colon
[45] = tested on: UACC-257 melanoma
[46] = tested on: HL-60(TB) leukemia
[47] = tested on: SF-295 CNS
[48] = tested on: NCI-H460 lung
[49] = tested on: SK-OV-3 ovarian
[50] = tested on: SK-MEL-2 melanoma
[51] = tested on: IGROV1 ovarian
[52] = tested on: BT-549 breast
[53] = tested on: CAKI-1 renal
[54] = tested on: OVCAR-8 ovarian
[55] = tested on: COLO 205 colon
[56] = tested on: CCRF-CEM leukemia

## COc1cc(OC)cc(N(CCNC(C)C)c2ccc3ncc(-c4cnn(C)c4)nc3c2)c1
[1]
  GI50: 0.523 µM
  TGI: 4.2 µM
[2]
  GI50: 4.63 µM
  TGI: 20 µM
[3]
  GI50: 7.3 µM
  TGI: 33.1 µM
[4]
  GI50: 12.7 µM
  TGI: 30.3 µM
[5]
  GI50: 5.33 µM
  TGI: 19.1 µM
[6]
  GI50: 2.71 µM
  TGI: 11.8 µM
[7]
  GI50: 3.32 µM
  TGI: 15.5 µM
[8]
  GI50: 6.48 µM
  TGI: 21.5 µM
[9]
  GI50: 2.23 µM
  TGI: 12.3 µM
[10]
  GI50: 4.53 µM
  TGI: 23 µM
[11]
  GI50: 2.11 µM
  TGI: 10.8 µM
[12]
  GI50: 3.72 µM
  TGI: 15.7 µM
[13]
  GI50: 2.99 µM
  TGI: 12 µM
[14]
  GI50: 1.2 µM
  TGI: 5.16 µM
[15]
  GI50: 6.38 µM
  TGI: 20.4 µM
[16]
  GI50: 13.1 µM
  TGI: 27 µM
[17]
  GI50: 3.53 µM
  TGI: 19 µM
[18]
  GI50: 2.18 µM
  TGI: 8.12 µM
[19]
  GI50: 5.8 µM
  TGI: 22 µM
[20]
  GI50: 3.96 µM
  TGI: 15.9 µM
[21]
  GI50: 10.5 µM
  TGI: 24.3 µM
[22]
  GI50: 3.34 µM
  TGI: 13.5 µM
[23]
  GI50: 5.6 µM
  TGI: 20.2 µM
[24]
  GI50: 2.81 µM
  TGI: 12.1 µM
[25]
  GI50: 10.9 µM
  TGI: 24.3 µM
[26]
  GI50: 11.2 µM
  TGI: 24.9 µM
[27]
  GI50: 5.29 µM
  TGI: 17.9 µM
[28]
  GI50: 10.9 µM
  TGI: 24.9 µM
[29]
  GI50: 2.25 µM
  TGI: 14.8 µM
[30]
  GI50: 0.586 µM
  TGI: 7.25 µM
[31]
  GI50: 1.49 µM
  TGI: 6.19 µM
[32]
  GI50: 5.73 µM
  TGI: 19 µM
[33]
  GI50: 4.55 µM
  TGI: 17 µM
[34]
  GI50: 4.63 µM
  TGI: 18.4 µM
[35]
  GI50: 7.82 µM
  TGI: 23.4 µM
[36]
  GI50: 4.32 µM
  TGI: 19.6 µM
[37]
  GI50: 6.9 µM
  TGI: 20.9 µM
[38]
  GI50: 2.9 µM
  TGI: 13.6 µM
[39]
  GI50: 5.42 µM
  TGI: 19.8 µM
[40]
  GI50: 6.54 µM
  TGI: 23.2 µM
[41]
  TGI: 3.5 µM
[42]
  GI50: 6.76 µM
  TGI: 21.5 µM
[43]
  GI50: 4.45 µM
  TGI: 18.6 µM
[44]
  GI50: 7.53 µM
  TGI: 21.8 µM
[45]
  GI50: 9.49 µM
  TGI: 23.4 µM
[46]
  GI50: 7.37 µM
  TGI: 22.7 µM
[47]
  GI50: 10.8 µM
  TGI: 25.1 µM
[48]
  GI50: 5.25 µM
  TGI: 18.1 µM
[49]
  GI50: 1.99 µM
  TGI: 6 µM
[50]
  GI50: 7.31 µM
  TGI: 25 µM
[51]
  GI50: 3.02 µM
  TGI: 11.1 µM
[52]
  GI50: 2.78 µM
  TGI: 17.9 µM
[53]
  GI50: 2.8 µM
  TGI: 13.3 µM
[54]
  GI50: 4.75 µM
  TGI: 18.9 µM
[55]
  GI50: 4.64 µM
  TGI: 18.5 µM
[56]
  GI50: 8.48 µM
  TGI: 47 µM
